From BindingDB's records for doi:10.1016/j.bioorg.2017.04.001 (China Pharmaceutical University, 2017)

Columns and labels:
[1] = target: Hepatocyte growth factor receptor (Homo sapiens, UniProt P08581); experiment: In Vitro c-Met and VEGFR-2 Enzyme Assay; settings: pH 7.4; 37 °C
Procedure: (§1) Briefly, 20 μg/mL poly (Glu,Tyr) 4:1 (Sigma) was pre-coated in 96-well plates as a substrate. A 50 μL aliquot of 10 μmol/L ATP solution diluted in kinase reaction buffer (50 mmol/L HEPES [pH 7.4], 50 mmol/L MgCl2, 0.5 mmol/L MnCl2, 0.2 mmol/L Na3VO4, and 1 mmol/L DTT) was added to each well; 1 μL of various concentrations of indicated compounds diluted in 1% DMSO (v/v) (Sigma) was then added to each reaction well. DMSO (1%, v/v) was used as the negative control. The kinase reaction was initiated by the addition of purified tyrosine kinase proteins diluted in 49 μL of kinase reaction buffer. After incubation for 60 min at 37 °C, the plate was washed three times with phosphate-buffered saline (PBS) containing 0.1% Tween 20 (T-PBS). Anti-phosphotyrosine (PY99) antibody was then added. After a 30-min incubation at 37 °C, the plate was washed three times, and horseradishperoxidase-conjugated goat anti-mouse IgG was added. The plate was then incubated at 37 °C for 30 min and washed 3 times. A 100 μL aliquot of a solution containing 0.03% H2O2 and 2 mg/ml ophenylenediamine in 0.1 mol/L citrate buffer (pH 5.5) was added. The reaction was terminated by the addition of 50 μL of 2 mol/L H2SO4 as the color changed, and the plate was analyzed using a multi-well spectrophotometer (SpectraMAX 190, Molecular Devices) at 490 nm.

[2] = target: Vascular endothelial growth factor receptor 2 (Homo sapiens, UniProt P35968); experiment: In Vitro c-Met and VEGFR-2 Enzyme Assay; settings: pH 7.4; 37 °C
Procedure: as §1

Hepatocyte growth factor receptor, sequence (P08581 whole entry): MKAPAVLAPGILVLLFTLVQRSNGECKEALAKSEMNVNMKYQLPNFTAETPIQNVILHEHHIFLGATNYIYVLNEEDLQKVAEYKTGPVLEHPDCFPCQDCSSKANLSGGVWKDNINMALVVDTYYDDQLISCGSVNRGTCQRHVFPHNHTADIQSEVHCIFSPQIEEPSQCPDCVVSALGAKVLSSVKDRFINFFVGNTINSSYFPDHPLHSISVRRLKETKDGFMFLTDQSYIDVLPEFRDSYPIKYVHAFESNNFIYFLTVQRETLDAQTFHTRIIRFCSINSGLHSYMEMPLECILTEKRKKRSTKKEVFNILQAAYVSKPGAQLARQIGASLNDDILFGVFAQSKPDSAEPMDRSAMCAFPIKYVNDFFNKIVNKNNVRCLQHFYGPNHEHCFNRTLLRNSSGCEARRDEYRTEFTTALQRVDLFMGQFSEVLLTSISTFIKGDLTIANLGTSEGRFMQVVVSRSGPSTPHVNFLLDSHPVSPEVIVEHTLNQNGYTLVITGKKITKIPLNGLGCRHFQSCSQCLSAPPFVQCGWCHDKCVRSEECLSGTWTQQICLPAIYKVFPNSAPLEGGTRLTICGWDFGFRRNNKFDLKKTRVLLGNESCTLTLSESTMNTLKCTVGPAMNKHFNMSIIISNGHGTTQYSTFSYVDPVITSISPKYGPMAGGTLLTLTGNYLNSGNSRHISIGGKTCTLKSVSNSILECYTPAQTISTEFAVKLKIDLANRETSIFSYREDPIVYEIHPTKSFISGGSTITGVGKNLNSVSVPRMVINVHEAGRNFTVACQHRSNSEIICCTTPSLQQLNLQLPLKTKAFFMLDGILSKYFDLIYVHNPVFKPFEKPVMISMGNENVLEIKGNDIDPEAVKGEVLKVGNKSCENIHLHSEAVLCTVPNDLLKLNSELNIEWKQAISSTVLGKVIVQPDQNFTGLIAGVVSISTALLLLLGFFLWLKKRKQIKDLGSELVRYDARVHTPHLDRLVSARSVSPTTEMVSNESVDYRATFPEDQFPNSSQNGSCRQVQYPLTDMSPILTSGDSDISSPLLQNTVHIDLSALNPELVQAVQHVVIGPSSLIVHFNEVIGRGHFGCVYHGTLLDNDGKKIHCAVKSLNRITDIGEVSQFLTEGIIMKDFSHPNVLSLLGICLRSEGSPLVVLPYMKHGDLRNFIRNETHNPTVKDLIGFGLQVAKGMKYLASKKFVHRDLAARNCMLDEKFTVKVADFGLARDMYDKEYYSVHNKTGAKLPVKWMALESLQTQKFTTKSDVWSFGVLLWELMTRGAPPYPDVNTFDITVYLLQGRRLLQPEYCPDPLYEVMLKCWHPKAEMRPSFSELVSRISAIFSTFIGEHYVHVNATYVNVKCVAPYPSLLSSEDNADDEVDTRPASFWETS
Vascular endothelial growth factor receptor 2, sequence (P35968 whole entry): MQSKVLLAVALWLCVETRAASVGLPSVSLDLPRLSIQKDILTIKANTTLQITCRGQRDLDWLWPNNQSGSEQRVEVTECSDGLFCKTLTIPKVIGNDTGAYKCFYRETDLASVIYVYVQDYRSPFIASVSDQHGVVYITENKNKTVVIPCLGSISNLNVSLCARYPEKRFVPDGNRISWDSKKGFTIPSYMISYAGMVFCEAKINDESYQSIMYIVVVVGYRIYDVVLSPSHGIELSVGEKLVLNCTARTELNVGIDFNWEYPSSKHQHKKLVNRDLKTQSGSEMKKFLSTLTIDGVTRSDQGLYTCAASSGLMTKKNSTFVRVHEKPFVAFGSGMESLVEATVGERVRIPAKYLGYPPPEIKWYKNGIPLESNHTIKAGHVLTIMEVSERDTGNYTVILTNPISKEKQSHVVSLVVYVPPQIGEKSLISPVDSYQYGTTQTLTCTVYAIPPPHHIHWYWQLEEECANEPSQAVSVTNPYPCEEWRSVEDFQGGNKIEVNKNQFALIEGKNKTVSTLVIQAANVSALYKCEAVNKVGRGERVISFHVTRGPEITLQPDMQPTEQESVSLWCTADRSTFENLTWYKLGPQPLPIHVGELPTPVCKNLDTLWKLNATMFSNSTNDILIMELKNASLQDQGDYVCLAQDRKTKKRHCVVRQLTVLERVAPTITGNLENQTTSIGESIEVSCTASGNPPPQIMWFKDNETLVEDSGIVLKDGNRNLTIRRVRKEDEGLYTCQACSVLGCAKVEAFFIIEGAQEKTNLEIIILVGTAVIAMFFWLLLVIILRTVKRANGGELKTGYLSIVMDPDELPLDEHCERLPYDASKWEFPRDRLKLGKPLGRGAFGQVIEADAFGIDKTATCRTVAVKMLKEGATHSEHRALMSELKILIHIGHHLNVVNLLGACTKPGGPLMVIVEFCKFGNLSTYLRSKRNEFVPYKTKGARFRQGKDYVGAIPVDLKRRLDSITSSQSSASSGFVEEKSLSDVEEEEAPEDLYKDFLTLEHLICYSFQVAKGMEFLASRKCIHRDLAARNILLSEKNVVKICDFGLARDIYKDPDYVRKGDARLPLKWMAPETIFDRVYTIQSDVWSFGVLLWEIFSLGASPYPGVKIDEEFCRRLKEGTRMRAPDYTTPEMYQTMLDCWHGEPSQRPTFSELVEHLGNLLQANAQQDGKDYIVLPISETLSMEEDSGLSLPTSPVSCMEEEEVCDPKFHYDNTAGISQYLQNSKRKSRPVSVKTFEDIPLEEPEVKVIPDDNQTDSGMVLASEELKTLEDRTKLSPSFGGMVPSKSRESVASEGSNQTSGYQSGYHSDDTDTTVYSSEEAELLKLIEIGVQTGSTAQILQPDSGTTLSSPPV

Row | SMILES | IC50 [1] [nM] | IC50 [2] [nM]
1 | Cc1c(C(=O)Nc2ccc(Oc3ccnc(C(=O)NCCN4CCOCC4)c3)c(F)c2)c(=O)n(-c2ccccc2)n1C [4-(4-(1,5-dimethyl-3-oxo-2-phenyl-2,3-dihydro-1H-pyrazole-4-carboxamido)-2-fluorophenoxy)-N-(2-morpholinoethyl)picolinamide (9l)] | 510 | 860
2 | Cc1c(C(=O)Nc2ccc(Oc3ccnc(-c4nncn4CCCN(C)C)c3)c(F)c2)c(=O)n(-c2ccccc2)n1C [N-(3-fluoro-4-((2-(4-(3-dimethylaminopropyl)-4H-1,2,4-triazol-3-yl)pyridin-4-yl)oxy)phenyl)-1,5-dimethyl-3-oxo-2-phenyl-2,3-dihydro-1H-pyrazole-4-carboxamide (12b)] | 150 | 370
3 | Cc1c(C(=O)Nc2ccc(Oc3ccnc(-c4nncn4CCCN4CCN(C)CC4)c3)c(F)c2)c(=O)n(-c2ccccc2)n1C [N-(3-fluoro-4-((2-(4-(3-(4-methylpiperazin-1-yl)propyl)-4H-1,2,4-triazol-3-yl)pyridin-4-yl)oxy)phenyl)-1,5-dimethyl-3-oxo-2-phenyl-2,3-dihydro-1H-pyrazole-4-carboxamide (12d)] |  | 190
4 | Cc1c(C(=O)Nc2ccc(Oc3ccnc(C(=O)NCCCN4CCOCC4)c3)c(F)c2)c(=O)n(-c2ccccc2)n1C [4-(4-(1,5-dimethyl-3-oxo-2-phenyl-2,3-dihydro-1H-pyrazole-4-carboxamido)-2-fluorophenoxy)-N-(3-morpholinopropyl) picolinamide (9h)] | 250 | 840
5 | Cc1c(C(=O)Nc2ccc(Oc3ccnc(C(=O)N4CCC(N5CCCCC5)CC4)c3)c(F)c2)c(=O)n(-c2ccccc2)n1C [N-(4-((2-([1,4'-bipiperidine]-1'-carbonyl)pyridin-4-yl)oxy)-3-fluorophenyl)-1,5-dimethyl-3-oxo-2-phenyl-2,3-dihydro-1H-pyrazole-4-carboxamide (9o)] | 330 | 780
6 | CCN1CCN(C(=O)c2cc(Oc3ccc(NC(=O)c4c(C)n(C)n(-c5ccccc5)c4=O)cc3F)ccn2)CC1 [N-(4-((2-(4-ethylpiperazine-1-carbonyl)pyridin-4-yl)oxy-3-fluorophenyl)-1,5-dimethyl-3-oxo-2-phenyl-2,3-dihydro-1H-pyrazole-4-carboxamide (9j)] | 970 | > 1000
7 | Cc1c(C(=O)Nc2ccc(Oc3ccnc(-c4nncn4CCCN4CCOCC4)c3)c(F)c2)c(=O)n(-c2ccccc2)n1C [N-(3-fluoro-4-((2-(4-(3-morpholinopropyl)-4H-1,2,4-triazol-3-yl)pyridin-4-yl)oxy)phenyl)-1,5-dimethyl-3-oxo-2-phenyl-2,3-dihydro-1H-pyrazole-4-carboxamide (12c)] | 170 | 520
